Test results as given in ChEMBL document CHEMBL1136280, “Geraniol-derived 1,2,4-trioxanes with potent in-vivo antimalarial activity” (2003).
Several values for one entry are separate records, joined by “and”; a condition that tells them apart may be missing. Equal values may be shown once.

Experiments:
Format in all cases: functional
Mus musculus [1] = assay: Mean survival time calculated for the mice which died during 28 day observation period at the dose of 96 mg/kg/day i.m.; details: route intramuscular
Mus musculus [2] = assay: In vivo antimalarial activity against Plasmodium yoelii in Swiss mice (Mus musculus) on day 4 at the dose of 96 mg/kg/day intramuscular.
Mus musculus [3] = assay: Mean survival time calculated for the mice which died during 28 day observation period at the dose of 96 mg/kg/day orally; details: route oral
Mus musculus [4] = assay: Mean survival time calculated for the mice which died during 28 day observation period at the dose of 48 mg/kg/day orally; details: route oral
Mus musculus [5] = assay: Mean survival time calculated for the mice which died during 28 day observation period at the dose of 48 mg/kg/day i.m.; details: route intramuscular
Mus musculus [6] = assay: Number of survival out of 5 mice on day 28 at the dose of 96 mg/kg/day i.m.; details: route intramuscular
Mus musculus [7] = assay: Number of survival out of 5 mice on day 28 at the dose of 96 mg/kg/day orally; details: route oral
Mus musculus [8] = assay: Number of survival out of 5 mice on day 28 at the dose of 48 mg/kg/day orally; details: route oral
Mus musculus [9] = assay: Number of survival out of 5 mice on day 28 at the dose of 48 mg/kg/day i.m.; details: route intramuscular
Mus musculus [10] = assay: In vivo antimalarial activity against Plasmodium yoelii in Swiss mice (Mus musculus) on day 4 at the dose of 96 mg/kg/day orally; details: route oral
Mus musculus [11] = assay: In vivo antimalarial activity against Plasmodium yoelii in Swiss mice (Mus musculus) on day 4 at the dose of 48 mg/kg/day intramuscular.
Mus musculus [12] = assay: In vivo antimalarial activity against Plasmodium yoelii in Swiss mice (Mus musculus) on day 4 at the dose of 48 mg/kg/day orally; details: route oral
Mus musculus [13] = assay: Number of survival out of 5 mice on day 28 at the dose of 24 mg/kg/day orally; details: route oral
Mus musculus [14] = assay: In vivo antimalarial activity against Plasmodium yoelii in Swiss mice (Mus musculus) on day 4 at the dose of 24 mg/kg/day orally; details: route oral
Mus musculus [15] = assay: Mean survival time calculated for the mice which died during 28 day observation period at the dose of 24 mg/kg/day orally; details: route oral
Mus musculus [16] = assay: Mean survival time calculated for the mice which died during 28 day observation period at the dose of 24 mg/kg/day i.m.; details: route intramuscular
Mus musculus [17] = assay: In vivo antimalarial activity against Plasmodium yoelii in Swiss mice (Mus musculus) on day 4 at the dose of 24 mg/kg/day intramuscular.
Mus musculus [18] = assay: Number of survival out of 5 mice on day 28 at the dose of 24 mg/kg/day i.m.; details: route intramuscular

| Compound | MST (Mus musculus [1]) | Suppression (Mus musculus [2]) | MST (Mus musculus [3]) | MST (Mus musculus [4]) | MST (Mus musculus [5]) | Activity (Mus musculus [6]) | Activity (Mus musculus [7]) | Activity (Mus musculus [8]) | Activity (Mus musculus [9]) | Suppression (Mus musculus [10]) | Suppression (Mus musculus [11]) | Suppression (Mus musculus [12]) | Activity (Mus musculus [13]) | Suppression (Mus musculus [14]) | MST (Mus musculus [15]) | MST (Mus musculus [16]) | Suppression (Mus musculus [17]) | Activity (Mus musculus [18]) |
| --- | --- | --- | --- | --- | --- | --- | --- | --- | --- | --- | --- | --- | --- | --- | --- | --- | --- | --- |
| C=C(CCC(O)c1ccc(-c2ccccc2)cc1)C1COC2(CCCCC2)OO1 (stereo not drawn) | 14 | 96.4% | 13.8 | 11.2 | 10.6 | 4 | 0 | 0 | 0 | 100% | 81% | 77.5% |  |  |  |  |  |  |
| C=C(CCC(O)c1cccc2ccccc12)C1COC2(CCCCC2)OO1 (stereo not drawn) | 16 | 100% | 13 |  | 14.2 | 4 | 0 |  | 0 | 68.4% | 93.4% |  |  |  |  |  |  |  |
| C=C(CCC(O)c1ccccc1)C1COC2(CCCCC2)OO1 (stereo not drawn) | 14.4 | 94.5% | 11.6 |  | 12.6 | 0 |  |  | 0 | 65% | 90.5% |  | 0 |  |  |  |  |  |
| C=C(CCC(O)c1ccc(-c2ccccc2)cc1)C1COC2(OO1)C1CC3CC(C1)CC2C3 (stereo not drawn) | 14.5 | 79% | 17.33 | 17.57 |  | 3 | 3 | 2 |  | 100% |  | 100% | 0 | 90.4% | 8.8 |  |  |  |
| C=C(CCC(O)c1cccc2ccccc12)C1COC2(CCCC2)OO1 (stereo not drawn) | 14.75 | 100% | 10.4 |  | 15.75 | 1 | 0 |  | 0 | 81.3% | 93.4% |  |  |  |  |  |  |  |
| C=C(CCC(O)c1ccc(Cl)cc1)C1COC2(OO1)C1CC3CC(C1)CC2C3 (stereo not drawn) | >28 and 15 | 100% | >28 | 10.2 |  | 5 | 5 | 0 | 0 | 100% | 78.9% | 90.8% |  |  |  |  |  |  |
| C=C(C)C(O)CCC(=C)C1COC2(OO1)C1CC3CC(C1)CC2C3 (stereo not drawn) | 19.57 | 100% |  |  | 14.8 | 2 |  |  | 0 |  | 100% |  |  |  |  | 12.2 | 67.7% | 0 |
| C[C@@H]1CC[C@H]2[C@@H](C)C(=O)O[C@@H]3O[C@@]4(C)CC[C@@H]1[C@]32OO4 [ARTEMISININ] | >28 |  |  | 16 |  |  |  |  | 5 |  | 100% |  |  |  |  |  | 100% | 4 |
| C=C(CCC(O)c1ccccc1)C1COC2(CCCC2)OO1 (stereo not drawn) | 14.8 | 100% | 8.2 |  | 12.6 | 2 | 0 |  | 0 |  | 100% |  |  |  |  |  | 67.7% |  |
| C=C(CCC(O)c1ccc(Cl)cc1)C1COC2(CCCC2)OO1 (stereo not drawn) | 14.57 | 100% | 7.4 |  | 14.57 | 2 | 0 |  | 0 | 29.6% | 98.4% |  |  |  |  |  |  |  |
| CCN(CC)CCCC(C)Nc1ccnc2cc(Cl)ccc12 (stereo not drawn) [CHLOROQUINE] |  |  | 20 | 17.6 |  |  | 4 | 4 |  | 100% |  | 100% |  |  |  |  |  |  |
| C=C(CCC(O)c1ccccc1)C1COC2(OO1)C1CC3CC(C1)CC2C3 (stereo not drawn) | >28 and 15.57 | 100% | 16.57 | 9 |  | 5 | 2 | 0 | 2 | 100% | 98.1% | 62.4% |  |  |  |  |  |  |
| C=C(CCC(O)c1cccc2ccccc12)C1COC2(OO1)C1CC3CC(C1)CC2C3 (stereo not drawn) | 15.33 | 72.13% | 17 | 15.57 |  | 2 | 3 | 2 |  | 100% |  | 100% | 0 | 87.1% | 10.4 |  |  |  |
| C=C(CCC(O)c1ccc(Cl)cc1)C1COC2(CCCCC2)OO1 (stereo not drawn) | >28 | 100% | 10.2 |  | 16 | 5 | 0 |  | 0 | 88.8% | 97.1% |  |  |  |  |  |  |  |
| C=C(CCC(O)c1ccc(-c2ccccc2)cc1)C1COC2(CCCC2)OO1 (stereo not drawn) | 17.33 | 100% | 16 | 12 | 16.75 | 2 | 0 | 0 | 0 | 100% | 100% | 94.3% |  |  |  | 11.8 | 85.2% | 0 |
